The values that follow come from patent US20130005588A1, “METHOD FOR DETERMINING SUBSTANCE NON-TOXICITY” (priority 2010, published 2013).

For data set [1], the system named is rat 3-D primary aggregating brain cell cultures. The data set can be described thus: Gene expression (mRNA of nestin, NF-200, S100β, MBP) by quantitative real-time PCR in aggregating brain cell cultures exposed to potential DNT chemicals. It counts as cell-based. As to the method:
(§1) Generally one batch of Rat primary aggregating brain cell cultures aggregates were prepared every month. […] The endpoints applied to study processes of neurodevelopment include quantitative real-time PCR, Western blot analysis and mass spectrometry based metabolomics.
Aggregate cultures were maintained for 35 days in vitro (DIV). Samples were taken at DIV 1, 7, 14, 21, 28, 35 and mRNA was isolated, purified and quantified by RT-PCR.
The expression of the following genes was quantified; nestin expressed in neural precurser cells, neurofilament-200 (NF-200) expressed in neurons, S100β expressed in astrocytes and myelin basic protein (MBP) expressed in oligodendrocytes.
Aggregating brain cell cultures were exposed to potential DNT chemicals during both early (day in vitro 7-14) and late developmental stages (day in vitro […]). Chemicals were dissolved in water or DMSO depending on their chemical properties. Control cells received the vehicle without the DNT chemical.
(Quantitative PCR measures a nucleic acid by following its amplification.)

For data set [2], the system named is primary rat aggregating brain cell cultures. It counts as cell-based. As to the method: as §1
Cellular extracts (control and treated cultures) were prepared as described. The samples were used to establish an LC-MS method for the analysis of metabolites. […] Significant pertubations in metabolite levels were determined by principal component analysis and metabolites were identified by a Metlin metabolite database search using their retention time and accurate mass. Examples of metabolites that were perturbed by lead chloride and TCE treatment in the neuronal cell model and could be linked to biological pathways are provided in Table 3.

Setting [3] is: astrocytic marker, exposure DIV 7-14 or 7-21, real-time PCR.
[4] abbreviates: nestin, NF-200, S100β, MBP, exposure DIV 7-14 or 7-21.
The mark [5] stands for this setting: neural precursor marker, exposure DIV 7-14 or 7-21, real-time PCR.
Where [6] appears, read: neuronal marker, exposure DIV 7-14 or 7-21, real-time PCR.
[7] abbreviates: oligodendrocyte marker, exposure DIV 7-14 or 7-21, real-time PCR.

Where two headings read alike, the source gives them in different places. Residues, ends and D or L forms follow the SMILES beside them.

Regarding `COC(=O)[C@H](Cc1ccccc1)NC(=O)[C@@H](N)CC(=O)O` [Aspartame] (HELM PEPTIDE1{D.F.[CO[*:1]]}$$$$V2.0), the “The lowest concentration inducing changes in mRNA levels of S100β” value in data set [1] (setting [3]) is recorded as “—^1”. Further, in data set [1] (setting [4]), the “significant effects on quantified gene expression levels (one or several cell type related genes)” value (from here on “significant effects”) is listed as “did not induce any significant effects”. In addition, in data set [1] (setting [5]), the “The lowest concentration inducing changes in mRNA levels of nestin” value is listed as “—^1”. Further, the “The lowest concentration inducing changes in mRNA levels of NF-200” value in data set [1] (setting [6]) is listed as “—^1”. For the same molecule, the “The lowest concentration inducing changes in mRNA levels of MBP” value in data set [1] (setting [7]) is recorded as “—^1”.

Turning to `CC(C)(c1ccc(O)cc1)c1ccc(O)cc1` [Bisphenol A], in data set [1] (setting [3]), the “The lowest concentration inducing changes in mRNA levels of S100β” value was “—^1”. In data set [1] (setting [4]), the “significant effects” value was “significantly affected”. Also, in data set [1] (setting [5]), the “The lowest concentration inducing changes in mRNA levels of nestin” value was “—^1”. Also, the “The lowest concentration inducing changes in mRNA levels of NF-200” value in data set [1] (setting [6]) came out at 100 µM. The “The lowest concentration inducing changes in mRNA levels of MBP” value in data set [1] (setting [7]) is “—^1”.

With `[Cl][Cd][Cl]` [Cadmium Chloride], the “The lowest concentration inducing changes in mRNA levels of S100β” value in data set [1] (setting [3]) was determined as 1 µM. Further, the “significant effects” value in data set [1] (setting [4]) is “significantly affected”. Moreover, in data set [1] (setting [5]), the “The lowest concentration inducing changes in mRNA levels of nestin” value was determined as 1 µM. Further, the “The lowest concentration inducing changes in mRNA levels of NF-200” value in data set [1] (setting [6]) was found to be 1 µM. Moreover, the “The lowest concentration inducing changes in mRNA levels of MBP” value in data set [1] (setting [7]) worked out at 10 µM.

Turning to `CNC(=O)Oc1cccc2ccccc12` [Carbaryl], in data set [1] (setting [3]), the “The lowest concentration inducing changes in mRNA levels of S100β” value was “—^1”. Further, in data set [1] (setting [5]), the “The lowest concentration inducing changes in mRNA levels of nestin” value worked out at 0.1 µM. For the same molecule, in data set [1] (setting [6]), the “The lowest concentration inducing changes in mRNA levels of NF-200” value came out at 0.1 µM. The “The lowest concentration inducing changes in mRNA levels of MBP” value in data set [1] (setting [7]) worked out at 0.1 µM.

On to `CCOP(=S)(OCC)Oc1nc(Cl)c(Cl)cc1Cl` [Chlorpyrifos], for which the “The lowest concentration inducing changes in mRNA levels of S100β” value in data set [1] (setting [3]) is 10 µM. Also, the “significant effects” value in data set [1] (setting [4]) is reported as “significantly affected”. In addition, the “The lowest concentration inducing changes in mRNA levels of nestin” value in data set [1] (setting [5]) is 0.1 µM. Besides, in data set [1] (setting [6]), the “The lowest concentration inducing changes in mRNA levels of NF-200” value worked out at 0.1 µM. For the same molecule, the “The lowest concentration inducing changes in mRNA levels of MBP” value in data set [1] (setting [7]) amounted to 1 µM.

In the case of `Nc1nnc(-c2cccc(Cl)c2Cl)c(N)n1` [Lamotrigine], in data set [1], the “significant effects” value is reported as “did not induce any significant effects”. Further, in data set [1] (rat), the “The lowest concentration inducing changes in mRNA levels of NF-200” value is on record as “—^1”, the “The lowest concentration inducing changes in mRNA levels of S100β” value is recorded as “—^1” and the “The lowest concentration inducing changes in mRNA levels of nestin” value is given as “—^1”.

Take `[Cl][Pb][Cl]` [Lead Chloride]: the “The lowest concentration inducing changes in mRNA levels of S100β” value in data set [1] (setting [3]) was 10 µM. Also, the “significant effects” value in data set [1] (setting [4]) is on record as “significantly affected”. Besides, the “The lowest concentration inducing changes in mRNA levels of nestin” value in data set [1] (setting [5]) turned out to be 10 µM. For the same molecule, in data set [1] (setting [6]), the “The lowest concentration inducing changes in mRNA levels of NF-200” value was determined as 0.1 µM. Besides, the “The lowest concentration inducing changes in mRNA levels of MBP” value in data set [1] (setting [7]) worked out at 0.1 µM. Besides, in data set [2] (LC-MS, intra-cellular extracts, treatment 7 to 21 DIV, principal component analysis), the “alteration of metabolites in the aggregate samples” value is on record as “altered hundreds of metabolites”.

Turning to `Cl[C@H]1[C@H](Cl)[C@@H](Cl)[C@@H](Cl)[C@H](Cl)[C@H]1Cl` [Lindane], the “The lowest concentration inducing changes in mRNA levels of S100β” value in data set [1] (setting [3]) was “—^1”. The “significant effects” value in data set [1] (setting [4]) is given as “significantly affected”. Also, in data set [1] (setting [5]), the “The lowest concentration inducing changes in mRNA levels of nestin” value was determined as 0.1 µM. Also, the “The lowest concentration inducing changes in mRNA levels of NF-200” value in data set [1] (setting [6]) worked out at 0.1 µM. Besides, the “The lowest concentration inducing changes in mRNA levels of MBP” value in data set [1] (setting [7]) worked out at 1 µM.

Consider `S=C([S-])NCCNC(=S)[S-].[Mn+2]` [Maneb], for which the “The lowest concentration inducing changes in mRNA levels of S100β” value in data set [1] (setting [3]) is reported as “—^1”; in data set [1] (astrocytic marker, exposure DIV 7-14 or 7-21, real-time PCR, listed as maneb), “no observed effects”. For the same molecule, the “significant effects” value in data set [1] (setting [4]) is reported as “significantly affected”. For the same molecule, the “The lowest concentration inducing changes in mRNA levels of nestin” value in data set [1] (setting [5]) was found to be 1 µM. In addition, in data set [1] (setting [6]), the “The lowest concentration inducing changes in mRNA levels of NF-200” value came to 0.1 µM. In addition, in data set [1] (setting [7]), the “The lowest concentration inducing changes in mRNA levels of MBP” value is 0.1 µM.

Regarding `ClC=C(Cl)Cl` [Trichloroethylene], the “significant effects” value in data set [1] was “significantly affected”. Moreover, in data set [1] (rat), the “The lowest concentration inducing changes in mRNA levels of NF-200” value came to 0.1 µM, the “The lowest concentration inducing changes in mRNA levels of S100β” value was “—^1” and the “The lowest concentration inducing changes in mRNA levels of nestin” value was 50 µM. The “alteration of metabolites in the aggregate samples” value in data set [2] was “altered hundreds of metabolites”.

With `CCCC(CCC)C(=O)O` [Valproic acid], the “significant effects” value in data set [1] is “significantly affected”. Further, in data set [1] (rat), the “The lowest concentration inducing changes in mRNA levels of MBP” value was 100 µM, the “The lowest concentration inducing changes in mRNA levels of NF-200” value is “—^1”, the “The lowest concentration inducing changes in mRNA levels of S100β” value stood at 500 µM and the “The lowest concentration inducing changes in mRNA levels of nestin” value was “—^1”.
